From US11090319B2, “Therapeutic uses of pharmaceutical compositions comprising cyclic boronic acid ester derivatives” (Melinta Subsidiary Corp., priority 2010, dated 2021)
Where two headings read alike, the source gives them in different places.

Key:
[1] = target: various β-lactamases (bacterial lysates) (Escherichia coli, UniProt A0A649V088); experiment: biochemical; assay type: biochemical; conditions: read-out: AZT IC50 KP1005 CTX-M-14
[2] = target: various β-lactamases (bacterial lysates) (Klebsiella pneumoniae, UniProt Q9F663, H272Y); experiment: biochemical; assay type: biochemical
Sequence of various β-lactamases (bacterial lysates) (Klebsiella pneumoniae, UniProt Q9F663, H272Y) (Q9F663 whole entry H272Y, looked up): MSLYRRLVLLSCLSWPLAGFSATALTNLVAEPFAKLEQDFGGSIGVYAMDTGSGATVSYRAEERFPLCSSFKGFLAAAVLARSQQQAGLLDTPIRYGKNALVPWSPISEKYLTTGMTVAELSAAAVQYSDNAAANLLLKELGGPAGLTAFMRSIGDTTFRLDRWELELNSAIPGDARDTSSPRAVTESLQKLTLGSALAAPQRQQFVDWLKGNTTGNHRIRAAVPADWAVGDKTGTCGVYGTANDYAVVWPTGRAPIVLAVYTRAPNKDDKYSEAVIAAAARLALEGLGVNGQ

[3] = target: various β-lactamases (bacterial lysates) (Escherichia coli, UniProt A0A5R8T042); experiment: biochemical; assay type: biochemical; conditions: read-out: AZT IC50 KP1009 CTX-M-15
Sequence of various β-lactamases (bacterial lysates) (Escherichia coli, UniProt A0A5R8T042) (A0A5R8T042 29-291): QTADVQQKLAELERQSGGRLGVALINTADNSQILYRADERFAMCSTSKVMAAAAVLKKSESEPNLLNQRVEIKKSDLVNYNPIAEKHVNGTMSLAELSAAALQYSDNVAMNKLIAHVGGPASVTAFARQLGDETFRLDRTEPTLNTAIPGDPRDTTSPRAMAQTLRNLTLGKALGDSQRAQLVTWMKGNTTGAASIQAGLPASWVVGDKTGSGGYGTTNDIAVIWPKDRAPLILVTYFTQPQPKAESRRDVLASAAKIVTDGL

[4] = target: various β-lactamases (bacterial lysates) (Pseudomonas aeruginosa, UniProt P14489); experiment: biochemical; assay type: biochemical; conditions: AZT IC50 KP1007 OXA-10
Sequence of various β-lactamases (bacterial lysates) (Pseudomonas aeruginosa, UniProt P14489) (P14489 20-266): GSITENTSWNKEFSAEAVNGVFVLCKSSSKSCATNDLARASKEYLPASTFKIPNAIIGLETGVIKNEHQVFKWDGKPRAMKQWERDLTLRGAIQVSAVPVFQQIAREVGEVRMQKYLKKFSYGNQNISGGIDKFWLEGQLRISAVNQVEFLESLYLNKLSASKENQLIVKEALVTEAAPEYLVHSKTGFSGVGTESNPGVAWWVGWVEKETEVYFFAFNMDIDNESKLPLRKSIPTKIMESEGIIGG

[5] = target: various β-lactamases (bacterial lysates) (Salmonella typhimurium, UniProt P0A1V8); experiment: biochemical; assay type: biochemical; conditions: AZT IC50 KPX1001 OXA-2
Sequence of various β-lactamases (bacterial lysates) (Salmonella typhimurium, UniProt P0A1V8) (P0A1V8 22-275): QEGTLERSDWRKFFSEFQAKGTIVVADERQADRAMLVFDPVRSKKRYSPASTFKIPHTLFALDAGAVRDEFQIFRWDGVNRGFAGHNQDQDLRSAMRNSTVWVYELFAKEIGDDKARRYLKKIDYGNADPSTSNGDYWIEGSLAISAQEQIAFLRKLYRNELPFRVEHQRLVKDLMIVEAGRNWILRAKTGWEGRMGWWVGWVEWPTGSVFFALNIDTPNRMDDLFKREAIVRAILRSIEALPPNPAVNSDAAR

[6] = target: various β-lactamases (bacterial lysates) (Klebsiella pneumoniae, UniProt Q9F663); experiment: biochemical; assay type: biochemical; conditions: aztreonam cleavage
Sequence of various β-lactamases (bacterial lysates) (Klebsiella pneumoniae, UniProt Q9F663) (Q9F663 whole entry, looked up): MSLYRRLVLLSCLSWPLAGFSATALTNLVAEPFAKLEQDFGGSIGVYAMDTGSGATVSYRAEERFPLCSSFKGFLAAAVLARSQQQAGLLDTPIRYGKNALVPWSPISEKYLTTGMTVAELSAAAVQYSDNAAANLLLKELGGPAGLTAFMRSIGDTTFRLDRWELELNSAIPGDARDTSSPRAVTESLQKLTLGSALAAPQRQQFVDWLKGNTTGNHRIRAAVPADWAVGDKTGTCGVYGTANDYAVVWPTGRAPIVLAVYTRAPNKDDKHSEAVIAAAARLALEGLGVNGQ

[7] = system: strains expressing class A ESBLs; assay type: cell-based
Protocol: Selected β-lactamase inhibitors were also tested for their ability to potentiate the monobactam tigemonam.

[8] = lysate KP1004 KPC-2, read-out: AZT IC50 KP1004 KPC-2 (converted)
[9] = lysate KP1008 KPC-2, read-out: AZT IC50 KP1008 KPC-2

Sequence of various β-lactamases (bacterial lysates) (Escherichia coli, UniProt A0A649V088) (A0A649V088 29-291): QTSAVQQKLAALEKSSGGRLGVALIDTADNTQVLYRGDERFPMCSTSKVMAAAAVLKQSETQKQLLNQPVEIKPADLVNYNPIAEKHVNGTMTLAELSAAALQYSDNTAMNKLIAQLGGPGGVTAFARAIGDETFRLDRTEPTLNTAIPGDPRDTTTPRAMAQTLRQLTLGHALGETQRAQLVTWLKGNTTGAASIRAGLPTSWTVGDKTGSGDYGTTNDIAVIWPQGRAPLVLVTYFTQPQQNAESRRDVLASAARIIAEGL

SMILES: O=C(O)C[C@@H]1CC[C@H](NC(=O)c2cn(C3CC3)c3cc(N4CCNCC4)c(F)cc3c2=O)B(O)O1 [Compound 58, 2-((3R,6S)-3-(1-cyclopropyl-6-fluoro-4-oxo-7-(piperazin-1-yl)-1,4-dihydroquinoline-3-carboxamido)-2-hydroxy-1,2-oxaborinan-6-yl)acetic acid]
- IC50 [1]: 1.03 to 4.11 µM
- IC50 [2]: < 1030 nM
- IC50 [3]: > 4.11 µM
- IC50 [4]: > 4.11 µM
- IC50 [5]: > 4110 nM
- IC50 [6, 8]: < 1030 nM
- IC50 [6, 9]: < 1030 nM

SMILES: C[C@]1(Cn2ccnn2)[C@H](C(=O)N[C@H]2CC[C@@H](CC(=O)O)OB2O)N2C(=O)C[C@H]2S1(=O)=O [Compound 59, 2-[(3R,6S)-2-hydroxy-3-[(2S,3 S,5R)-3-methyl-4,4,7-trioxo-3-(1H-1,2,3-triazol-1-ylmethyl)-4λ^6-thia-1-azabicyclo[3.2.0]heptane-2-amido]-1,2-oxaborinan-6-yl]acetic acid]
- IC50 [1]: > 4.39 µM
- IC50 [2]: 1100 to 4390 nM
- IC50 [3]: > 4.39 µM
- IC50 [4]: > 4.39 µM
- IC50 [5]: 1100 to 4390 nM
- IC50 [6, 8]: 1100 to 4390 nM
- IC50 [6, 9]: < 1100 nM

SMILES: O=C(O)C[C@@H]1CC[C@H](NC(=O)CCc2nnc(-c3ccccc3)o2)B(O)O1 [Compound 60, 2-((3R,6S)-2-hydroxy-3-(3-(5-phenyl-1,3,4-oxadiazol-2-yl)propanamido)-1,2-oxaborinan-6-yl)acetic acid]
- IC50 [1]: 1.34 to 5.36 µM
- IC50 [2]: < 1340 nM
- IC50 [3]: 1.34 to 5.36 µM
- IC50 [4]: > 5.36 µM
- IC50 [5]: 1340 to 5360 nM
- IC50 [6, 8]: < 1340 nM
- IC50 [6, 9]: < 1340 nM

SMILES: Nc1cc(CC(=O)N[C@H]2CC[C@@H](CC(=O)O)OB2O)ccn1 [Compound 61, 2-((3R,6S)-3-(2-(2-aminopyridin-4-yl)acetamido)-2-hydroxy-1,2-oxaborinan-6-yl)acetic acid]
- IC50 [1]: 1.63 to 6.51 µM
- IC50 [2]: < 1630 nM
- IC50 [3]: > 6.51 µM
- IC50 [4]: > 6.51 µM
- IC50 [5]: 1630 to 6510 nM
- IC50 [6, 8]: < 1630 nM
- IC50 [6, 9]: < 1630 nM

SMILES: O=C(O)CC1CCC[C@H](NC(=O)Cc2cccs2)B(O)O1 (stereo partly drawn) [Compound 63, 2-((3R)-2-hydroxy-3-(2-(thiophen-2-yl)acetamido)-1,2-oxaborepan-7-yl)acetic acid]
- IC50 [1]: 1.61 to 6.43 µM
- IC50 [2]: 1610 to 6430 nM
- IC50 [3]: 1.61 to 6.43 µM
- IC50 [4]: > 6.43 µM
- IC50 [5]: 1610 to 6430 nM
- IC50 [6, 8]: 1610 to 6430 nM
- IC50 [6, 9]: 1610 to 6430 nM
- MPC4 CTX-M-14 KP1005 [7]: Z (key: X: MPC@4 of less than 2 μg/mL; Y: MPC@4 of 2 μg/mL to 10 μg/mL; Z: MPC@4 of greater than 10 μg/mL)
- MPC4 CTX-M-15 KP1009 [7]: Y (key: X: MPC@4 of less than 2 μg/mL; Y: MPC@4 of 2 μg/mL to 10 μg/mL; Z: MPC@4 of greater than 10 μg/mL)
- MPC4 SHV-5 ec308 [7]: Z (key: X: MPC@4 of less than 2 μg/mL; Y: MPC@4 of 2 μg/mL to 10 μg/mL; Z: MPC@4 of greater than 10 μg/mL)
- MPC4 SHV-12 KP1010 [7]: Y (key: X: MPC@4 of less than 2 μg/mL; Y: MPC@4 of 2 μg/mL to 10 μg/mL; Z: MPC@4 of greater than 10 μg/mL)
- MPC4 SHV-18 KP1012 [7]: Y (key: X: MPC@4 of less than 2 μg/mL; Y: MPC@4 of 2 μg/mL to 10 μg/mL; Z: MPC@4 of greater than 10 μg/mL)
- MPC4 TEM-10 EC1009 [7]: Z (key: X: MPC@4 of less than 2 μg/mL; Y: MPC@4 of 2 μg/mL to 10 μg/mL; Z: MPC@4 of greater than 10 μg/mL)
- MPC4 TEM-10 ec302 [7]: Z (key: X: MPC@4 of less than 2 μg/mL; Y: MPC@4 of 2 μg/mL to 10 μg/mL; Z: MPC@4 of greater than 10 μg/mL)
- MPC4 TEM-26 ec304 [7]: Z (key: X: MPC@4 of less than 2 μg/mL; Y: MPC@4 of 2 μg/mL to 10 μg/mL; Z: MPC@4 of greater than 10 μg/mL)

SMILES: CCOC(=O)C[C@@H]1CC[C@H](NC(=O)Cc2cccs2)B(O)O1 [Compound 65, ethyl 2-((3R,6S)-2-hydroxy-3-(2-(thiophen-2-yl)acetamido)-1,2-oxaborinan-6-yl)acetate]
- IC50 [1]: 1.54 to 6.15 µM
- IC50 [2]: > 6150 nM
- IC50 [3]: > 6.15 µM
- IC50 [4]: > 6.15 µM
- IC50 [5]: 1540 to 6150 nM
- IC50 [6, 8]: 1540 to 6150 nM
- IC50 [6, 9]: 1540 to 6150 nM

SMILES: O=C(O)C[C@@H]1CC[C@H](NC(=O)Cc2cc(F)cc(F)c2)B(O)O1 [Compound 66, 2-((3R,6S)-3-(2-(3,5-difluorophenyl)acetamido)-2-hydroxy-1,2-oxaborinan-6-yl)acetic acid]
- IC50 [1]: 1.53 to 6.11 µM
- IC50 [2]: < 1530 nM
- IC50 [3]: > 6.11 µM
- IC50 [4]: > 6.11 µM
- IC50 [5]: < 1530 nM
- IC50 [6, 8]: < 1530 nM
- IC50 [6, 9]: < 1530 nM
